Patent US9156811B2 (priority 2008, dated 2015)

tested on: Trypanosome (T. brucei brucei); assay: In-vitro antitrypanosomal efficacy assay (cell growth, resazurin); assay type: cell-based; details: T. brucei brucei, blood stream form, variant 221
Protocol: To column 12, 200 μl media was added to provide a no cells control. Plates were then incubated at 37° C. in an atmosphere of 5% CO2 for 69 hours, before the addition of 20 μl of 500 μM rezasurin solution, and a further incubation period of 4 hours. […] Concentration effect curves were fitted using non-linear regression using XLFit 4.2 and EC50 values determined.

SMILES | ED50 (μM) T. brucei [µM]
Cc1nn(C)c(C)c1N(CC(F)(F)F)[S+](=O)([O-])c1c(Cl)cc(CCCN2CCCN(C)CC2)cc1Cl [DDD100157] | 0.014
Cc1c(N[S+](=O)([O-])c2ccc(-c3ccc(Cl)c(CN(C)C)c3)cc2)c(CC(C)C)nn1C [DDD100143] | 0.017
CCN(c1c(C)nn(C)c1C)[S+](=O)([O-])c1c(Cl)cc(CCCC2CCNCC2)cc1Cl [DDD100091] | 0.004
Cc1nn(C)c(C)c1N(C(F)F)[S+](=O)([O-])c1ccc(-c2cccc(C3CCNCC3)c2)cc1 [DDD100891] | 0.129
Cc1c(N[S+](=O)([O-])c2ccc(-c3ccc(F)c(CN(C)C)c3)cc2)c(CC(C)C)nn1C [DDD99832] | 0.010
Cc1nn(C)c(C)c1N(CC(F)F)[S+](=O)([O-])c1c(Cl)cc(CCCC2CCNCC2)cc1Cl [DDD100145] | 0.02
Cc1nn(C)c(C)c1N(CC(F)F)[S+](=O)([O-])c1c(Cl)cc(CCCOC2CCN(C)CC2)cc1Cl [DDD100161] | 0.006

same assay, conditions: T. brucei cell growth

SMILES | ED50 (μM) T. brucei [µM]
Cc1nn(C)c(C)c1N(C)[S+](=O)([O-])c1c(Cl)cc(CCCN2CCCNCC2)cc1Cl [DDD99755] | 0.002
Cc1nn(C)c(C)c1N(C)[S+](=O)([O-])c1ccc(CCCCCN(C)C)cc1 [DDD90145] | 1.00
CCN(c1c(C)nn(C)c1C)[S+](=O)([O-])c1c(Cl)cc(CCCN2CCN(C)CC2)cc1Cl [DDD90154] | 0.023
Cc1nn(C)c(C)c1N[S+](=O)([O-])c1ccc(-c2cccc(CNCc3ccccc3)c2)cc1 [DDD87765, 3′-(Benzylamino-methyl)-biphenyl-4-sulfonic acid (1,3,5-trimethyl-1H-pyrazol-4-yl)-amide] | >1
Cc1nn(C)c(C)c1N[S+](=O)([O-])c1ccc(CCCCC2CCNCC2)cc1 [DDD99760] | 0.010
Cc1c(N[S+](=O)([O-])c2ccc(CCCC3CCNCC3)cc2)c(CC(C)C)nn1C [DDD90144] | 0.034
Cc1nn(C)c(C)c1N[S+](=O)([O-])c1ccc(-c2cccc(C3CCNCC3)c2)cc1 [DDD87768, 3′-Piperidin-4-yl-biphenyl-4-sulfonic acid (1,3,5-trimethyl-1H-pyrazol-4-yl)-amide] | 0.06
Cc1ccc(SCc2ccc([S+](=O)([O-])Nc3c(C)nn(C)c3C)cc2)cc1 [DDD85642] | >1
Cc1nn(C)c(C)c1N[S+](=O)([O-])c1ccc(Br)cc1Cl [DDD86208, 4-Bromo-2-chloro-N-(1,3,5-trimethyl-1H-pyrazol-4-yl)-benzenesulfonamide] | >1
Cc1nn(C)c(C)c1N(C)[S+](=O)([O-])c1ccc(CCCC2CCN(C)CC2)cc1 [DDD90023] | 0.20
Cc1nn(C)c(C)c1N[S+](=O)([O-])c1cc(C(F)(F)F)cc(C(F)(F)F)c1 [DDD61393] | >1
C#CCN(c1c(C)nn(C)c1C)[S+](=O)([O-])c1c(Cl)cc(Br)cc1Cl [DDD85630] | >1
CCN(c1c(C)nn(C)c1C)[S+](=O)([O-])c1c(Cl)cc(-c2ccnc(N3CCNCC3)c2)cc1Cl [DDD88646] | 0.002
Cc1cc([S+](=O)([O-])Nc2c(C)nn(C)c2C)c(Cl)cc1Cl [DDD60006] | >1
Cc1c(N[S+](=O)([O-])c2ccc(-c3cccc(CN4CCCC4)c3)cc2)c(CC(C)C)nn1C [DDD99739] | 0.058
CCN(CC)Cc1ccccc1-c1ccc([S+](=O)([O-])Nc2c(C)nn(C)c2C)cc1 [DDD87758, 2′-Diethylaminomethyl-biphenyl-4-sulfonic acid (1,3,5-trimethyl-1H-pyrazol-4-yl)-amide] | >1
Cc1nn(C)c(C)c1N[S+](=O)([O-])c1ccc(-c2cccc(CCO)c2)cc1 [DDD87751, 3′-(2-Hydroxy-ethyl)-biphenyl-4-sulfonic acid (1,3,5-trimethyl-1H-pyrazol-4-yl)-amide] | >1
